For orientation: IC50 means the concentration needed to halve the response being measured.

This test has as its target Epidermal growth factor receptor (Homo sapiens, UniProt P00533). The experiment in a line: Inhibition of EGFR (unknown origin).

Chain of Epidermal growth factor receptor (P00533 whole entry): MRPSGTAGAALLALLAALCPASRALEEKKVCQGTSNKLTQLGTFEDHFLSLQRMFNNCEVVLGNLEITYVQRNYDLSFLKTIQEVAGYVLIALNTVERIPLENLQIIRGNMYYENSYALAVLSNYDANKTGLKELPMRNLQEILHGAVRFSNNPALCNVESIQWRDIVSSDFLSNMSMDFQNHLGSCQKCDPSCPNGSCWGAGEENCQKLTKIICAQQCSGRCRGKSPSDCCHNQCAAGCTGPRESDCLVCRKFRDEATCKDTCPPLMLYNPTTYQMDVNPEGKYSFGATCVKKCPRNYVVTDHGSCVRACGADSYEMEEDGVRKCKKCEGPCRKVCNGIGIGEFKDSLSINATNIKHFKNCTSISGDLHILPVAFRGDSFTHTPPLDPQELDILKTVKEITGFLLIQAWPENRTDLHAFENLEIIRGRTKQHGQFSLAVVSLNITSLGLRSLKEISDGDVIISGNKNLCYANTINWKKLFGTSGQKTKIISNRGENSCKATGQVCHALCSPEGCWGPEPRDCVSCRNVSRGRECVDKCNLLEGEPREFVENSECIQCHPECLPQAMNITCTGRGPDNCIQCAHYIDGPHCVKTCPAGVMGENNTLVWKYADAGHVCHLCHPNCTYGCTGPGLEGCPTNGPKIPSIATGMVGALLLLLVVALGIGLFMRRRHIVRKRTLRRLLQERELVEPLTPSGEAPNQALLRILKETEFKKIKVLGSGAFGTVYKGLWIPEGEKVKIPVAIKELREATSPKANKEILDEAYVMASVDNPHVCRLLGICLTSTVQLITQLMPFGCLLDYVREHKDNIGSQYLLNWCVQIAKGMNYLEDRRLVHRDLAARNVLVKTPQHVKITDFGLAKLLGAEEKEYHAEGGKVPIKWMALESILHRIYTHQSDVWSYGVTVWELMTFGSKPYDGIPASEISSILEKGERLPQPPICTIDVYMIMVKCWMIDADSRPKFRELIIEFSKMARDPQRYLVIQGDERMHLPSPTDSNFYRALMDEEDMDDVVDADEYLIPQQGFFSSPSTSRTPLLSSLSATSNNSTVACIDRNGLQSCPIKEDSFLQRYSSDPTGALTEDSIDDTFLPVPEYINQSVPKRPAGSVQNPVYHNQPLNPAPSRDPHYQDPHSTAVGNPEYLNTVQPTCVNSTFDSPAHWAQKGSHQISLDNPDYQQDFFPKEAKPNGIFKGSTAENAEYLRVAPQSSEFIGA

On to `COCC#CC(=O)Nc1ccc2ncc(C#N)c(Nc3cccc(Br)c3)c2c1`, for which it took 0.96 µM to reach half-maximal inhibition (IC50).
On to `COCCOCC#CC(=O)Nc1ccc2ncc(C#N)c(Nc3cccc(Br)c3)c2c1`, for which the IC50 was 0.93 µM.
`CC#CC(=O)Nc1cc2c(Nc3cccc(Br)c3)c(C#N)cnc2cc1OC`: inhibition was half-maximal at 0.19 µM (IC50). This IC50 is about 4.9-fold lower than that of the compound before.
`COc1cc2ncc(C#N)c(Nc3cccc(Br)c3)c2cc1NC(=O)C#CCN(C)C` yielded an IC50 of 0.09 µM. This IC50 lies about 2.1-fold lower than the previous one.
In turn, `COC[C@@H]1CCCN1CC#CC(=O)Nc1ccc2ncc(C#N)c(Nc3cccc(Br)c3)c2c1` displayed an IC50 of 0.15 µM.
In the case of `C=C(CN(C)C)C(=O)Nc1cc2c(Nc3ccc(F)c(Cl)c3)c(C#N)cnc2cc1OCC`, the IC50 turned out to be 0.56 µM.
`CCCNCC#CC(=O)Nc1ccc2ncc(C#N)c(Nc3cccc(Br)c3)c2c1` had an IC50 of 0.13 µM.
For the compound `COc1cc2ncc(C#N)c(Nc3cccc(Br)c3)c2cc1NC(=O)/C=C/CN(C)C`, the midpoint of inhibition, the IC50, lay at 0.79 µM.
Then `C=CC(=O)Nc1ccc2ncc(C#N)c(Nc3cccc(Br)c3)c2c1`, with 0.59 µM; and `CC#CC(=O)Nc1ccc2ncc(C#N)c(Nc3cccc(Br)c3)c2c1`, with 0.94 µM; and `CN(C)C/C=C/C(=O)Nc1ccc2ncc(C#N)c(Nc3cccc(Br)c3)c2c1`, with 0.31 µM.
To `CN(C)C/C=C/C(=O)Nc1ccc2ncc(C#N)c(Nc3ccc(F)c(Cl)c3)c2c1` belongs 0.65 µM; to `C=CC(=O)Nc1cc2c(Nc3cccc(Br)c3)c(C#N)cnc2cc1OC`, 0.81 µM.
Then `COCC#CC(=O)Nc1cc2c(Nc3cccc(Br)c3)c(C#N)cnc2cc1OC`, with 0.791 µM; and `N#Cc1cnc2ccc(NC(=O)C#CCN3CCSCC3)cc2c1Nc1cccc(Br)c1`, with 0.55 µM.

Values taken from ChEMBL document CHEMBL3046694, “3D QSAR STUDIES OF INHIBITORS OF EPIDERMAL GROWTH FACTOR RECEPTOR [EGFR] USING CoMFA AND GFA METHODOLOGIES” (Med Chem Res, 2004).
